Assay results published in US8470845B2, “Analgesic and methods of treating pain” (Toray Industries, Inc., priority 2004, dated 2013).

Key:
male ddY mouse [1] = experiment: Analgesic activity test by mouse acetic acid writhing method; assay type: in vivo; details: subcutaneous, 15 minutes before i.p. 0.6% acetic acid; dosage to halve the number of writhing response
Method: To each male ddY mouse, each test compound or the vehicle was subcutaneously administered in an administration volume of 0.1 mL/10 g body weight. Fifteen minutes later, 0.1 mL/10 g body weight of aqueous 0.6% (v/v) acetic acid solution was intraperitoneally administered. From 10 minutes after the administration of the acetic acid solution, the number of writhing response (i.e., the behavior to bend the body backward and/or twist the body) during 10 minutes was counted, and the analgesic activity was evaluated based on the number of writhing response. […] 10% Aqueous dimethylsulfoxide (DMSO) was used as a vehicle for test compounds 1, 2, 3, 4, 5, 6, 7, 8, 9, 10, 11, 12, 13, 14, 15, 16, 17, 18, 19, 20, 21 and 22. 0.1% Citric acid/aqueous 5% xylitol was used as a vehicle for test compounds 10f.

[2] = tested on: female Sprague-Dayley rats; experiment: Activity to relieve cystalgia caused by hyperextension of bladder, myoelectric activity of external oblique abdominal muscle as index; assay type: in vivo, rat; details: iv; for Rate of Inhibition of Myoelectric Activity (Number of Spikes) of External Oblique Abdominal Muscle (vs. before administration, %): anesthetized rats, mean ± standard error
Method: The activity of Compound 10f to relieve cystalgia was evaluated using the myoelectric activity of external oblique abdominal muscle in hyperextension of bladder of anesthetized rats as an index of the cystalgia. In the experiments, 14 to 15-week old female Sprague-Dayley rats (CLEA Japan, Inc.) weighing 300 to 360 g were used.
Under halothane (2.5-4%) anesthesia, a polyethylene catheter (PE-50) for cystometry was inserted into the bladder transurethrally. Further, a polyethylene catheter (PE-100) for filling physiological saline was inserted into the bladder from the apex of bladder dome. […] A catheter for drug administration was indwelled in the femoral vein. The skin in the lateral ventral part was incised and a bipolar electrode for electromyographic measurement was inserted into the external oblique abdominal muscle and indwelled therein. A reservoir preliminarily filled with physiological saline was connected to the catheter indwelled in the bladder and held at a prescribed height to extend the bladder. The extension stimulus was continued for 20 seconds. In cases where the stimulation is repeatedly given, the interval between stimulation was 3 minutes. A bipolar electrode (needle electrode for electroencephalography, NIHON KOHDEN) was connected to an electromyograph amplifier (EMG100C, Biopac Systems), and a high cut filter (5 kHz) and low cut filter (100 Hz) were applied. Thereafter, the signals were taken into an AD converter (MP-150WSW, Biopac Systems) and into a computer at 1 kHz, and the myoelectric activity was recorded using the special software (AcqKnowledge 3.8.1, Biopac Systems). The intravesical pressure was measured using a pressure transducer (AP641G, NIHON KOHDEN) and a general purpose amplifier (DA100C, Biopac Systems). The halothane level was adjusted such that a stable myoelectric activity was obtained by extension at a pressure of 50 cmH2O, and then the drug was intravenously administered. Thereafter, hyperextension of bladder was repeated for at least 20 minutes.
The drug was dissolved in aqueous 5% xylitol-0.02% citric acid solution, and the administration volume was 0.5 mL/kg. The mean of the number of spikes during the twice hyperextension of bladder immediately before the drug administration was defined as the value before drug administration. Taking the value before the drug administration as 100%, the change in the number of spikes after administration of the drug was normalized. The mean of the change in the number of spikes by the consecutive three times hyperextension carried out immediately before or after 15-minutes time point from the drug administration was calculated, and the drug effect was analyzed by Williams test.

male ddY mouse [3] = details: literature, Pain. Vol 50, 223-229 (1992); cited from earlier work

Compound | ED50 (male ddY mouse [1]) | Rate of Inhibition of Myoelectric Activity (Number of Spikes) of External Oblique Abdominal Muscle (vs. before administration, %) ([2]; 0.003 mg/kg) | Rate of Inhibition of Myoelectric Activity (Number of Spikes) of External Oblique Abdominal Muscle (vs. before administration, %) ([2]; 0.01 mg/kg) | Rate of Inhibition of Myoelectric Activity (Number of Spikes) of External Oblique Abdominal Muscle (vs. before administration, %) ([2]; 0.03 mg/kg) | inhibition of the myoelectric activity (in words) ([2]; 0.003-0.03 mg/kg) | minimum effective dose ([2]; inhibition of myoelectric activity) | effect on pain in PGF2α-induced allodynia model (in words) (male ddY mouse [3])
O=C1c2ccccc2C(=O)N1[C@@H]1CC[C@@]2(O)[C@H]3Cc4ccc(O)c5c4[C@@]2(CCN3CC2CC2)[C@H]1O5 [Compound 10f, N-(17-cyclopropylmethyl-4,5α-epoxy-3,14-dihydroxy-morphinan-6β-yl)-phthalimide] | 0.037 mg/kg | 5.9 ± 11.5% | 42.4 ± 21.1 % | 64.3 ± 17.2 % | dose-dependently and significantly inhibited | 0.01 mg/kg | –
CN1CC[C@]23c4c5ccc(O)c4O[C@H]2[C@@H](O)C=C[C@H]3[C@H]1C5 [morphine] | – | – | – | – | – | – | ineffective
